Experimental data reported in publication PMC11973282, “RAS70 peptide targets multiforme glioblastoma by binding to the plasma membrane heat shock protein HSP70” (Frontiers in Oncology, 2025).
Where two headings read alike, the source gives them in different places.

Experiments:
[1] = RAS70 solution stability study (HPLC-QTOF/MS); format: physicochemical; settings: 1 mg/mL stock in sterile 0.9% sodium chloride, diluted working solutions, Protein LoBind tubes, HPLC-QTOF/MS peak area normalized to internal standard dalargin vs freshly prepared solutions
Source text: HPLC grade reagents include acetonitrile (1.00029) and formic acid (5.33002), were purchased from Sigma Aldrich. The deionized HPLC grade water was obtained through a Milli-Q system (Millipore, Milford, MA, USA). Sodium acetate (Sigma Aldrich, St. Louis, USA) was used for MS calibration. Dalargin (Tyrosyl-D-alanyl-glycyl-phenylalanyl-leucyl-arginine; UNII V13505565P) was used as an internal standard. Protein LoBind® Tubes (022431081, Eppendorf, Hamburg, Germany). The stock solution of RAS70 were prepared by dissolving 1 mg of RAS70 reference standard in 1 mL of a sterile solution of 0.9% sodium chloride in water. After centrifugation the supernatant were transferred into Protein LoBind Tubes (Eppendorf, Hamburg, Germany). Working standard solutions for stability study were prepared using a dilution method. All of the solutions were stored away from light at RT and in a refrigerator at +4°C. The samples were analyzed on a HPLC-QTOF/MS system (Bruker Daltonics, Bremen, Germany) that consisted of an Elute UHPLC coupled to Q-TOF Maxis Impact equipped with an electrospray ionization source ( Supplementary Figure S1 ). […] Chromatograms and mass spectra were analyzed using DataAnalysis® 5.0 software (Bruker Daltonics GmbH, Bremen, Germany). […]

GL261 glioma = test system: GL261 glioma; parameters: species or system C57BL/6 mice; settings: mouse, in vivo
Experimental: The animals were anesthetized with a combination of Zoletil 100 (Virbac, France) and Rometar (Bioveta, Czech Republic). Rat glioma C6 (2х10^6) and mice glioma GL261 (1х10^6) cells were injected intracranially into the area of nucl. caudatus dexter.
For evaluation of the tumor retention of the RAS70 peptide in GL261 glioma-bearing mice the animals following tumor cells injection were randomly assigned to the study groups (6 animals each) as follows (1): control group – PBS i.v. injection via tail vein (100 μL) (2); i.v. administration of […] peptide (100 μl, 2.5 mg/kg) (3); i.v. administration of NGL-RGD-sCy7.5 peptide (100 μl, 2.5 mg/kg) (4); i.v. administration of TKD-sCy7.5 peptide (100 μl, 2.5 mg/kg) (5); i.v. administration of […] peptide (100 μl, 2.5 mg/kg). Following clinical manifestation of the brain tumor progression in animals (3–4 weeks after intracranial tumor cells injection) peptides were i.v. injected and the peptides biodistribution was assessed employing IVIS in vivo Imaging System (PerkinElmer, USA). […]
Processing of the obtained luminescence images was performed using Living Image 4.7.4 firmware. The luminescence signals were read from the color maps of the obtained images by selecting the ROI contour (region of interest). […]

[2] = test system: GL261 cells (lower chamber; HUVEC and astrocytes barrier)
Experimental: (§1) Then, a peptide labeled with a fluorescent label was introduced into the upper chamber and co-incubation was carried out for 12, 24 and 36 hours. At the end of the incubation, the tumor cells were washed with cold phosphate-buffered saline (PBS) and fixed with a 4% solution of paraformaldehyde in PBS. Nuclei were stained with 4’,6-diamidino-2-phenylindole (DAPI). Fluorescent images were obtained using a Leica TCS SP8 confocal microscope (Leica, Germany). To avoid possible cross-interference of different fluorochromes, images for DAPI and FITC were obtained using a sequential sample scanning method. Fluorescently labeled cells were counted in the lower chamber. To estimate the mHsp70-mediated uptake of chaperone-targeted peptides tumor cells prior to incubation were pre-treated with anti-Hsp70 monoclonal antibodies SPA-810 (1:250, Stressgen) and SPA-815 (1:250 Stressgen). To exclude integrin (αvβ3, αvβ5)-mediated penetration of RAS70 tumor cells prior to incubation with peptides were pre-treated with anti- αvβ3 (1:200 clone LM609, ZMS1030, Sigma-Aldrich, USA), -αvβ5 (1:200 clone P1F6, MAB1961Z, Sigma-Aldrich, USA) monoclonal antibodies.
(§2) Then, a peptide labeled with a fluorescent dye (FITC) was introduced into the upper chamber and co-incubation was carried out for 12, 24 and 36 hours. At the end of the incubation, the tumor cells were washed with cold phosphate-buffered saline (PBS) and fixed with a 4% solution of paraformaldehyde in PBS. Nuclei were stained with 4’,6-diamidino-2-phenylindole (DAPI).
(§3) Data from 3 independent experiments are presented as M ± SE. […] Data from 3 independent experiments are presented as M ± SE. ** p < 0.01 for testing mean expression levels.

[3] = test system: U251 cells (lower chamber; HUVEC and astrocytes barrier)
Experimental: as §1, §2, §3

[4] = test system: U251 cells (lower chamber; HUVEC and astrocytes barrier); assay: Transwell BBB model, peptide passage and accumulation in tumor cells; settings: transwell BBB model: HUVEC (5×10^5) and astrocytes (5×10^5) in upper chamber, U251 (1×10^4) in lower chamber; FITC-labeled peptide; 36 hours; confocal microscopy count; M ± SE, 3 independent experiments
Experimental: as §1, §2, §3

Structure (SMILES)	time for which RAS70 solution was stable ([1]; storage at RT away from light)	time for which RAS70 solution was stable ([1]; storage in refrigerator at +4°C away from light)	presence in normal brain tissue of animals (GL261 glioma)	rank order of organ accumulation (biodistribution) (GL261 glioma; iv)	fluorescently labeled tumor cells in the lower chamber [2]	fluorescently labeled tumor cells in the lower chamber [3]	fluorescently labeled tumor cells in the lower chamber [4]
CC(C)C[C@H](NC(=O)[C@H](CC(C)C)NC(=O)[C@H](CC(N)=O)NC(=O)[C@H](CC(N)=O)NC(=O)[C@H](CC(=O)O)NC(=O)[C@H](CCCCN)NC(=O)[C@@H](N)[C@@H](C)O)C(=O)NCC(=O)N[C@@H](CCCNC(=N)N)C(=O)N[C@@H](Cc1ccccc1)C(=O)N[C@@H](CCC(=O)O)C(=O)N[C@@H](CC(C)C)C(=O)N[C@@H](CO)C(=O)NCC(=O)NCCC(=O)N[C@@H](CCCNC(=N)N)C(=O)NCC(=O)N[C@@H](CC(=O)O)C(=O)O [RAS70]	1 week	1 week	non-specific presence of the RAS70 in blood vessel but not in normal brain cells	kidney > liver > small intestine > lungs	553 ± 61 cells	603 ± 87 cells	–
CC(C)C[C@H](NC(=O)[C@H](CC(C)C)NC(=O)[C@H](CC(N)=O)NC(=O)[C@H](CC(N)=O)NC(=O)[C@H](CC(=O)O)NC(=O)[C@H](CCCCN)NC(=O)[C@@H](N)[C@@H](C)O)C(=O)NCC(=O)N[C@@H](CCCNC(=N)N)C(=O)N[C@@H](Cc1ccccc1)C(=O)N[C@@H](CCC(=O)O)C(=O)N[C@@H](CC(C)C)C(=O)N[C@@H](CO)C(=O)NCC(=O)O [TKD]	–	–	–	–	–	–	345 ± 51 cells
